{
  "source": "paper PMC12935787",
  "about": "“Clinical pharmacokinetics and pharmacometabolomics of Andrographis paniculata capsules: Bridging drug disposition and metabolic response to precision medicine” (Naunyn-Schmiedeberg's Archives of Pharmacology, 2025)",
  "experiment": "Clinical pharmacokinetics, plasma LC-MS/MS after single oral dose of AP capsules",
  "format": "in vivo, human (healthy volunteers)",
  "details": "human, plasma, oral, 2000 mg, 2000 mg AP capsules, read-out: Plasma concentration; for concentration at 0.5 h: 0.50 h; for concentration at 1.5 h: 1.50 h; for concentration at 2.5 h: 2.50 h; for concentration at 3.5 h: 3.50 h",
  "description": "The protocol was published (Tee et al. [2022]).\nSeven calibrators ranging from 1, 2, 5,10, 20, 50, and 100 ng mL^−1 were prepared. Frozen plasma was thawed, vortexed-mixes, and processed via protein precipitation: 50 µL plasma plus 100 µL 0.01% ammonia in methanol were vortexed (20 s), centrifuged (14800 rpm, 5 min) and […] supernatant was transferred to 2 mL vials with inserts. LC–MS/MS injection volume: 10 µL. The separation used a Phenomenex Gemini-NX C18 column (150 × 2.1 mm, 5 μm) with 0.01% ammonia (A) and acetonitrile/methanol (1:1, B) as mobile phases (0.30 mL min^-1). The gradient program: 40% B (0 min), linear increase to 95% B (3 min), hold to 5 min, sharp decrease to 10% B (5.01 min), hold to 7 min, return to 40% B (7.01 min), and re-equilibration to 10 min. Mass detection employed an LCMS-8060NX triple quadrupole with heated ESI in negative mode, monitoring specific MRM transitions: andrographolide (349.3 → 331.2/287.1), 14-deoxyandrographolide (331.2 → 108.0/301.1), and neoandrographolide (479.1 → 317.4/161.1).\nPharmacokinetic parameters were determined from plasma samples (5 subjects, 15 time points) analyzed via LC–MS/MS (Shimadzu 8060NX). […] Specific MRM transitions for andrographolide, 14-deoxyandrographolide, and neoandrographolide in plasma samples of subjects are illustrated in Figure S3. […] The dose-dependent concentration–time curves, pharmacokinetics profiles (Fig. 2a, b and c) and comprehensive individual PK data (Table S4) provide a foundation for developing personalized AP dosing regimens, supporting its precision medicine potential.",
  "note": "Like-named read-outs stand apart in the source and are kept apart here.",
  "data": [
    {"smiles": "C=C1CC[C@@H]2[C@](C)(CO)[C@H](O)CC[C@@]2(C)[C@@H]1C/C=C1/C(=O)OC[C@H]1O", "note": "[andrographolide]", "values": [
      {"measurement": "concentration at 0 h", "setting": "S1", "value": 0, "unit": "ng/mL"},
      {"measurement": "concentration at 0.5 h", "setting": "S1", "value": 3.76, "unit": "ng/mL"},
      {"measurement": "concentration at 1 h", "setting": "S1", "value": 2.41, "unit": "ng/mL"},
      {"measurement": "concentration at 1.5 h", "setting": "S1", "value": 6.36, "unit": "ng/mL"},
      {"measurement": "concentration at 2 h", "setting": "S1", "value": 5.31, "unit": "ng/mL"},
      {"measurement": "concentration at 2.5 h", "setting": "S1", "value": 2.17, "unit": "ng/mL"},
      {"measurement": "concentration at 3 h", "setting": "S1", "value": 3.86, "unit": "ng/mL"},
      {"measurement": "concentration at 3.5 h", "setting": "S1", "value": 2.81, "unit": "ng/mL"},
      {"measurement": "concentration at 4 h", "setting": "S1", "value": 0, "unit": "ng/mL"},
      {"measurement": "concentration at 5 h", "setting": "S1", "value": 0, "unit": "ng/mL"},
      {"measurement": "concentration at 6 h", "setting": "S1", "value": 0, "unit": "ng/mL"},
      {"measurement": "concentration at 8 h", "setting": "S1", "value": 0, "unit": "ng/mL"},
      {"measurement": "concentration at 10 h", "setting": "S1", "value": 0, "unit": "ng/mL"},
      {"measurement": "concentration at 12 h", "setting": "S1", "value": 0, "unit": "ng/mL"},
      {"measurement": "concentration at 24 h", "setting": "S1", "value": 0, "unit": "ng/mL"},
      {"measurement": "concentration at 0 h", "setting": "S2", "value": 0, "unit": "ng/mL"},
      {"measurement": "concentration at 0.5 h", "setting": "S2", "value": 0, "unit": "ng/mL"},
      {"measurement": "concentration at 1 h", "setting": "S2", "value": 3.98, "unit": "ng/mL"},
      {"measurement": "concentration at 1.5 h", "setting": "S2", "value": 5.56, "unit": "ng/mL"},
      {"measurement": "concentration at 2 h", "setting": "S2", "value": 5.07, "unit": "ng/mL"},
      {"measurement": "concentration at 2.5 h", "setting": "S2", "value": 3.13, "unit": "ng/mL"},
      {"measurement": "concentration at 3 h", "setting": "S2", "value": 4.68, "unit": "ng/mL"},
      {"measurement": "concentration at 3.5 h", "setting": "S2", "value": 0, "unit": "ng/mL"},
      {"measurement": "concentration at 4 h", "setting": "S2", "value": 0, "unit": "ng/mL"},
      {"measurement": "concentration at 5 h", "setting": "S2", "value": 0, "unit": "ng/mL"},
      {"measurement": "concentration at 6 h", "setting": "S2", "value": 0, "unit": "ng/mL"},
      {"measurement": "concentration at 8 h", "setting": "S2", "value": 0, "unit": "ng/mL"},
      {"measurement": "concentration at 10 h", "setting": "S2", "value": 0, "unit": "ng/mL"},
      {"measurement": "concentration at 12 h", "setting": "S2", "value": 0, "unit": "ng/mL"},
      {"measurement": "concentration at 24 h", "setting": "S2", "value": 0, "unit": "ng/mL"},
      {"measurement": "concentration at 0 h", "setting": "S3", "value": 0, "unit": "ng/mL"},
      {"measurement": "concentration at 0.5 h", "setting": "S3", "value": 39.4, "unit": "ng/mL"},
      {"measurement": "concentration at 1 h", "setting": "S3", "value": 13.8, "unit": "ng/mL"},
      {"measurement": "concentration at 1.5 h", "setting": "S3", "value": 14.2, "unit": "ng/mL"},
      {"measurement": "concentration at 2 h", "setting": "S3", "value": 4.19, "unit": "ng/mL"},
      {"measurement": "concentration at 2.5 h", "setting": "S3", "value": 3.47, "unit": "ng/mL"},
      {"measurement": "concentration at 3 h", "setting": "S3", "value": 0, "unit": "ng/mL"},
      {"measurement": "concentration at 3.5 h", "setting": "S3", "value": 0, "unit": "ng/mL"},
      {"measurement": "concentration at 4 h", "setting": "S3", "value": 0, "unit": "ng/mL"},
      {"measurement": "concentration at 5 h", "setting": "S3", "value": 0, "unit": "ng/mL"},
      {"measurement": "concentration at 6 h", "setting": "S3", "value": 0, "unit": "ng/mL"},
      {"measurement": "concentration at 8 h", "setting": "S3", "value": 0, "unit": "ng/mL"},
      {"measurement": "concentration at 10 h", "setting": "S3", "value": 0, "unit": "ng/mL"},
      {"measurement": "concentration at 12 h", "setting": "S3", "value": 0, "unit": "ng/mL"},
      {"measurement": "concentration at 24 h", "setting": "S3", "value": 0, "unit": "ng/mL"},
      {"measurement": "concentration at 0 h", "setting": "S4", "value": 0, "unit": "ng/mL"},
      {"measurement": "concentration at 0.5 h", "setting": "S4", "value": 0, "unit": "ng/mL"},
      {"measurement": "concentration at 1 h", "setting": "S4", "value": 18.3, "unit": "ng/mL"},
      {"measurement": "concentration at 1.5 h", "setting": "S4", "value": 22.1, "unit": "ng/mL"},
      {"measurement": "concentration at 2 h", "setting": "S4", "value": 12.7, "unit": "ng/mL"},
      {"measurement": "concentration at 2.5 h", "setting": "S4", "value": 5.06, "unit": "ng/mL"},
      {"measurement": "concentration at 3 h", "setting": "S4", "value": 4.2, "unit": "ng/mL"},
      {"measurement": "concentration at 3.5 h", "setting": "S4", "value": 2.09, "unit": "ng/mL"},
      {"measurement": "concentration at 4 h", "setting": "S4", "value": 0, "unit": "ng/mL"},
      {"measurement": "concentration at 5 h", "setting": "S4", "value": 0, "unit": "ng/mL"}
    ]}
  ]
}
